Measured values taken from patent US12268665B2, “Combination of immunotherapies with MDM2 inhibitors” (ASCENTAGE PHARMA (SUZHOU) CO., LTD., priority 2018, dated 2025).

Assays:
[1] = tested on: tumor infiltrating cells in MC38 tumors; assay: TIL analysis by flow cytometry, p53mut MC38 tumors; format: in vivo
Description: The live/dead fixable dye (Invitrogen) was used to exclude dead cells. The FOXP3 kit from eBioscience was used for FOXP3 staining. Cells were washed and stained for 30 min on ice with indicated antibodies in MACS buffer or Brilliant staining buffer. Samples were than analyzed on Life Technology Attune NxT flow cytometer.

[2] = tested on: MH-22A murine hepatoma syngeneic model; assay: In vivo efficacy study in MH-22A model; set-up: species or system mouse; conditions: for RTV (Mean ± SEM) d15 / T/C (%) d15: anti-PD-1 10 mg/kg i.p. biw; for Response rate (%) d15: anti-PD-1 10 mg/kg, n=10
Description: Tumor volumes were measured twice weekly in two dimensions using a caliper, and the volume was expressed in mm^3 using the formula: Tumor Volume(mm^3)=0.5a×b^2 where a and b are the long and short diameters of the tumor, respectively.
Relative tumor volume (RTV) was calculated using the following formula: RTV=Vt/V1 Where V1 and Vt are the average tumor volumes on the first day of treatment (day 1) and the average tumor volumes on a certain time point (day t).
Synergy score was calculated using the following formula (Clarke R, Breast Cancer Research & Treatment, 1997, 46(2-3):255-278): Synergy score=((A/C)×(B/C))/(AB/C); A: response to treatment A; B: response to treatment B; C: response to vehicle control; AB: combination of treatment A and B.
Standard NCI procedures were used to calculate tumor parameters. Percent tumor growth inhibition (% T/C) was calculated as the mean RTV of treated tumors (T) divided by the mean RTV of control tumors (C)×100%. The percentage T/C value is an indication of antitumor effectiveness: a value of T/C<42% is considered significant antitumor activity by the NCI. A T/C value <10% is considered to indicate highly significant antitumor activity, and is the level used by the NCI to justify a clinical trial if toxicity and certain other requirements are met (termed DN-2 level activity). A body weight loss nadir (mean of group) of greater than 20%, or greater than 20% of drug deaths are considered to indicate an excessively toxic dosage.
Each mouse was inoculated subcutaneously at the right flank region with MH-22A tumor cells (5×10^6) in 0.2 mL of PBS for tumor development. The treatments were initiated when the mean tumor size reached ˜65 mm^3. The test articles were administered to the tumor-bearing mice according to the regimen shown in the experimental design Table 3. The day of start dosing was defined as d1.

[3] = Phase I study CTR20170975 in Chinese patients: safety; format: in vivo, human
Description: (§1) Patients with advanced soft tissue sarcoma (STS), adenoid cystic carcinoma (ACC) or other solid tumors in China (CTR20170975) were treated with APG-115. In dose escalation, patients received APG-115 (100-200 mg) orally QOD for first 21 days of a 28-day cycle, until disease progression. Study objectives include safety (primary endpoint), pharmacokinetics (PK), pharmacodynamics (PD), and antitumor activity assessed every 8 weeks.
(§2) This is a Phase I study (CTR20170975) is designed to assess the safety, dose-limiting toxicities (DLT), the maximum tolerated dose (MTD)/recommended phase 2 dose (RP2D), pharmacokinetics (PK), pharmacodynamics (PD) profile and anti-tumor activity of orally administered APG-115 in Chinese patients with advanced soft tissue sarcoma and other solid tumors.
Single dose escalation study was conducted. A standard “3+3” design was employed to determine the maximum tolerated dose (MTD) of APG-115 by assessing the dose limiting toxicity (DLT) of APG-115. Three dose levels of APG-115 was tested: 100, 150, 200 mg. APG-115 was administrated orally every other day (QOD) for a consecutive 3 weeks (i.e. dosed at Day 1, 3, 5, 7, 9, 11, 13, 15, 17, 19, and 21), with one week dosing off as 4-weeks a cycle. […] The scheme of the trial design is provided below.
This study was conducted with an initial dosage of […], according to the preliminary safety results in phase I study of APG-115 in the US.

clinical = assay: clinical; set-up: species or system human; conditions: in vivo
Description: as §1, §2

serum MIC-1 = assay: Phase Ib/II study with pembrolizumab: pharmacodynamics; format: in vivo, human; conditions: after APG-115 treatment, preliminary
Description: In the dose escalation study, APG-115 is combined with pembrolizumab of for the treatment of patients with metastatic solid tumor. Four dose levels of APG-115 are tested: 50, 100, 150, and 200 mg. APG-115 is administrated orally every other day (QOD) for consecutive 2 weeks of a 21-day-cycle. Pembrolizumab is administrated at 200 mg IV on day 1 of a 21-day-cycle. The primary objectives of the dose escalation study is to determine safety, tolerability, and determination of MTD and RP2D; other anti-tumor assessments (assessed per RECIST v1.1 every 6 weeks) are the secondary objectives.

[4] = APG-115 10 mg/kg p.o. qd, epacadostat 100 mg/kg p.o. bid

Structure (SMILES): CCN1[C@@H](C(=O)NC23CCC(C(=O)O)(CC2)CC3)[C@H](c2cccc(Cl)c2F)[C@]2(C(=O)Nc3cc(Cl)ccc32)C12CCCCC2 [APG-115]
- CD4+ T cells, NK cells, MDSCs, and regulatory T (Treg) cells [1]: no significant changes
- RTV (Mean ± SEM) d15 [2, 4]: 37.8 ± 6.8
- T/C (%) d15 [2, 4]: 98%
- Response rate (%) d15 ([2]; APG-115 10 mg/kg, epacadostat 100 mg/kg): 0%
- RTV (Mean ± SEM) d15 ([2]; APG-115 50 mg/kg p.o. qd): 36.2 ± 8.7
- T/C (%) d15 ([2]; APG-115 50 mg/kg p.o. qd): 94%
- Response rate (%) d15 ([2]; APG-115 50 mg/kg): 0%
- antitumor activity as single agents ([2]; APG-115 10 and 50 mg/kg, epacadostat 100 mg/kg): did not exert antitumor activity
- MTD ([3]; QOD, 21 days on 7 days off): 150 mg
- Adverse Event: Abdominal distension ([3]; human, in vivo): 2 (14.3%)
- Adverse Event: Abdominal pain ([3]; human, in vivo): 2 (14.3%)
- Adverse Event: Anaemia ([3]; human, in vivo): 11 (78.6%)
- Adverse Event: Any AE ([3]; human, in vivo): 14 (100.0%)
- Adverse Event: Asthenia ([3]; human, in vivo): 2 (14.3%)
- Adverse Event: Blood alkaline phosphatase increased ([3]; human, in vivo): 2 (14.3%)
- Adverse Event: Blood creatinine increased ([3]; human, in vivo): 2 (14.3%)
- Adverse Event: Cancer pain ([3]; human, in vivo): 2 (14.3%)
- Adverse Event: Decreased appetite ([3]; human, in vivo): 2 (14.3%)
- Adverse Event: Febrile neutropenia ([3]; human, in vivo): 2 (14.3%)
- Adverse Event: Gamma-glutamyltransferase increased ([3]; human, in vivo): 4 (28.6%)
- Adverse Event: Headache ([3]; human, in vivo): 2 (14.3%)
- Adverse Event: Hypercholesterolaemia ([3]; human, in vivo): 8 (57.1%)
- Adverse Event: Hypertriglyceridaemia ([3]; human, in vivo): 5 (35.7%)
- Adverse Event: Hyperuricaemia ([3]; human, in vivo): 3 (21.4%)
- Adverse Event: Hypoalbuminaemia ([3]; human, in vivo): 7 (50.0%)
- Adverse Event: Hypokalaemia ([3]; human, in vivo): 3 (21.4%)
- Adverse Event: Insomnia ([3]; human, in vivo): 2 (14.3%)
- Adverse Event: Low density lipoprotein increased ([3]; human, in vivo): 2 (14.3%)
- Adverse Event: Nausea ([3]; human, in vivo): 5 (35.7%)
- Adverse Event: Neutrophil count decreased ([3]; human, in vivo): 5 (35.7%)
- Adverse Event: Oedemaperipheral ([3]; human, in vivo): 3 (21.4%)
- Adverse Event: Platelet count decreased ([3]; human, in vivo): 9 (64.3%)
- Adverse Event: Vomiting ([3]; human, in vivo): 8 (57.1%)
- Adverse Event: White blood cell count decreased ([3]; human, in vivo): 7 (50.0%)
- Grade 3 Adverse Event: Anaemia ([3]; human, in vivo): 5 (35.7%)
- Grade 3 Adverse Event: Any AE ([3]; human, in vivo): 10 (71.4%)
- Grade 3 Adverse Event: Blood creatinine increased ([3]; human, in vivo): 1 (7.1%)
- Grade 3 Adverse Event: Dyspnoea ([3]; human, in vivo): 1 (7.1%)
- Grade 3 Adverse Event: Febrile neutropenia ([3]; human, in vivo): 2 (14.3%)
- Grade 3 Adverse Event: Lipase increased ([3]; human, in vivo): 1 (7.1%)
- Grade 3 Adverse Event: Neutrophil count decreased ([3]; human, in vivo): 4 (28.6%)
- Grade 3 Adverse Event: Platelet count decreased ([3]; human, in vivo): 6 (42.9%)
- Grade 3 Adverse Event: Pulmonary embolism ([3]; human, in vivo): 1 (7.1%)
- Grade 3 Adverse Event: Ureteric obstruction ([3]; human, in vivo): 1 (7.1%)
- Grade 3 Adverse Event: Vomiting ([3]; human, in vivo): 2 (14.3%)
- Grade 3 Adverse Event: White blood cell count decreased ([3]; human, in vivo): 4 (28.6%)
- Grade 3 or 4 TRAE: anaemia ([3]; human, in vivo): 38.5%
- Grade 3 or 4 TRAE: leukopenia ([3]; human, in vivo): 30.8%
- Grade 3 or 4 TRAE: neutropenia ([3]; human, in vivo): 23.1%
- Grade 3 or 4 TRAE: thrombocytopenia ([3]; human, in vivo): 38.5%
- RP2D ([3]; human, in vivo): 100 mg
- SAE, % of pts ([3]; human, in vivo): 54%
- SAE, pts ([3]; human, in vivo): 7 pts
- most common Grade 3 or 4 AEs ([3]; human, in vivo): hematologic toxicities, particularly thrombocytopenia
- Tmax (clinical; human): 4 to 6 h
- AUC and Cmax versus dose (clinical): generally increase dose proportionally
- Cmax and AUC0-t versus dose (clinical; po): approximately dose proportional increase
- serum MIC-1 levels (serum MIC-1): elevated
